Laboratory results from patent US20220105041A1, “METHOD FOR MANUFACTURING A SOLID ADMINISTRATION FORM AND SOLID ADMINISTRATION” (priority 2019, published 2022).

Assay: Dissolution (release of caffeine) of 3D printed tablets, paddle method, Sotax AT 7smart
Assay type: physicochemical
Conditions: 900 ml 0.1 n HCl, 37° C., paddle 100 rpm, UV 272 nm
Experimental: Release of caffeine as active ingredient is determined using the Sotax Freisetzungsapparatur Sotax AT 7smart (Sotax AG, Lörrach, Germany) […]
Each sample is collected in a test tube with the automatic sampler.
Device: Release apparatus: Sotax AT 7smart (Sotax AG, Lörrach, Germany), Photometer Agilent 8453 (Agilent Technologies, Waldbronn, Germany)
Temperature of medium: 37° C.
Cuvette layer thickness: 10 mm
FIG. 31 illustrates results achieved by dissolution measurement of 3D printed caffeine containing tablets in 900 ml of 0.1 n HCl. […] To dissolute and release the full API amount of a filled tablet (100%) needs 360 minutes for entire release of the comprising API, while a 3D printed tablet, 50% filled, already releases 100% of the comprising API amount after app 30 minutes in the dissolution equipment. The time measured is […] dissolving pure crystalline caffeine particles tested in comparison by 100% after app 5 minutes.

SMILES: Cn1c(=O)c2c(ncn2C)n(C)c1=O [pure crystalline caffeine, Caffeine]
- time to release 100% (full amount) of API caffeine: ~5 min
